Measured values from ChEMBL document CHEMBL1131849, “Synthesis and biological characterization of sqbazide, a novel biotinylated photoaffinity probe for the study of the human platelet thromboxane A2 receptor” (Bioorg Med Chem Lett, 1999).
Calls of active or inactive are those of the source. The calls are words filed in the database; no cut-off is given here.

How the values were obtained:
Homo sapiens [1] = species: Homo sapiens; assay: Tested for inhibition of platelet aggregation induced by A-23187; Inactive; type: functional, organism-based
Homo sapiens [2] = species: Homo sapiens; assay: Tested for inhibition of platelet aggregation induced by ADP; Inactive; type: functional, organism-based
Homo sapiens [3] = species: Homo sapiens; assay: Inhibitory activity against human platelet aggregation.; type: functional, organism-based
Thromboxane A2 receptor = molecular target: T1, Thromboxane A2 receptor (Homo sapiens, UniProt P21731); assay: Binding affinity to human platelet TXA2 receptors as ability to displace binding [3H]SQ-29,548
T1 sequence (P21731 whole entry): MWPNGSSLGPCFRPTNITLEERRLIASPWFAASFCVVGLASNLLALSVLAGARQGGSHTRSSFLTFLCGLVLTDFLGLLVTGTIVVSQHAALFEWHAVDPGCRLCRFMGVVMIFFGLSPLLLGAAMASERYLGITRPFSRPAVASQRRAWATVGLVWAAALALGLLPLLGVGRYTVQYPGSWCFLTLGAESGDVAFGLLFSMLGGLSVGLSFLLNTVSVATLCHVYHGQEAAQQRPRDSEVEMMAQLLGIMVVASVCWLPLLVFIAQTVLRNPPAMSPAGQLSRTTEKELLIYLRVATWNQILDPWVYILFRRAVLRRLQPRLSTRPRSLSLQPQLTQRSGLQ

Q: With `[N-]=[N+]=Nc1ccc(CCCC(=O)NCC(=O)NCC2C3CCC(O3)C2C/C=C\CCCC(=O)NNC(=O)CCCC[C@H]2SC[C@H]3NC(=O)N[C@H]32)cc1` (some centres undefined) as the molecule, how does the Activity (Homo sapiens [1]) read?
A: inactive

Q: What about the Activity (Homo sapiens [2]) of the same molecule?
A: inactive

Q: What about the IC50 (Homo sapiens [3]) of the same molecule?
A: 500 nM

Q: And the Ki (Thromboxane A2 receptor)?
A: 625 nM
